The values that follow come from patent US8361968B2 (Takeda Pharmaceutical Company Limited, priority 2002, dated 2013).

Numbered stars: 1 amine (or outer) side, 2 acyl side, 3 side chain; on linkers, the order of the positions; unused ones are H or OH. Square brackets hold non-standard residues; d marks the D form. Peptide text beside a SMILES is read from it. * marks the point of attachment. X11 = O=C(CNC(=S)[C@H](Cc1ccccc1)N[*:1])[*:2]; 2Nal = N[C@@H](Cc1ccc2ccccc2c1)C(=O)O; Arg(Me) = CNC(=N)NCCC[C@H](N)C(=O)O; Fmoc = O=C(OCC1c2ccccc2-c2ccccc21)*; 4Pal = N[C@@H](Cc1ccncc1)C(=O)O; X3 = NC(=S)[C@H](Cc1ccccc1)N*

The assay has as its target hOT7T175 (Homo sapiens, UniProt Q969F8, L364H). Briefly: Intracellular Ca ion level-increasing activity using FLIPR in hOT7T175/CHO. Format: cell-based. Also noted: expressed in transfected cells; host or cells: CHO/dhfr- cells, obtained from ATCC. As to conditions: relative, Metastin (1-54) = 1. How it is done:
Assay for Intracellular Ca Ion Level-Increasing Activity Using Flipr
In accordance with the method described in JPA 2000-312590, the intracellular Ca ion level-increasing activity was measured using FLIPR.
The stable expression cell line hOT7T175 was acquired by transduction of expression plasmid pAK-rOT175 for animal cells into CHO/dhff cells, using CellPhect Transfection Kit (Amersham Pharmacia Biotech, Inc.). First, 240 μL of Buffer A (attached to CellPhect Transfection Kit) was added to 9.6 μg of plasmid DNA dissolved in 240 μl of distilled water, followed by stirring. After settling the mixture for 10 minutes, 480 μL of Buffer B (attached to CellPhect Transfection Kit) was added to the mixture, which was vigorously stirred to form DNA-containing liposomes. Then, 4×10^5 CHO/dhff cells (obtained from ATCC) were inoculated on a 60 mm Petri dish. […] After culturing the cells at 37° C. for 6 hours in 5% carbon dioxide gas, the cells were washed twice with serum-free Ham's F-12 medium and 3 ml of 15% glycerol was added to the cells in the Petri dish to treat for 2 minutes. The cells were again washed twice with serum-free Ham's F-12 medium followed by incubation in Ham's F-12 medium supplemented with 10% fetal bovine serum at 37° C. for 15 hours in 5% carbon dioxide gas. The cells were dispersed by trypsin treatment and recovered from the Petri dish. The recovered cells were inoculated on a 6-well plate in 1.25×10^4 cells/well and incubation was initiated at 37° C. in Dulbecco's modified Eagle medium (DMEM) medium (Nissui Seiyaku Co., Ltd.) containing 10% dialyzed fetal bovine serum (JRH BIOSCIENCES, Inc.) under 5% carbon dioxide gas. […] The medium was exchanged on Days 1 and 2 to remove the cells died.
The intracellular Ca ion level-increasing activity of the synthetic peptide in hOT7T175/CHO was determined using FLIPR (Molecular Devices, Inc.).
hOT7T175/CHO was subcultured in DMEM supplemented with 10% dialyzed fetal bovine serum (hereinafter abbreviated as dFBS) and provided for the experiment (hereinafter abbreviated as 10% dFBS/DMEM). The hOT7T175/CHO was suspended in 10% dFBS-DMEM in 15×10^4 cells/ml. The suspension was inoculated on a 96-well plate for FLIPR (Black Plate Clear Bottom, Coster, Inc.) at 200 μL each (3.0×10^4 cells/200 μL/well), followed by incubation at 37° C. overnight in a 5% CO2 incubator (hereinafter simply referred to as the cell plate). Then, 21 ml of HANKS/HBSS (9.8 g of HANKS, 0.35 g of sodium hydrogencarbonate, 20 ml of 1M HEPES; after adjusting the pH to 7.4 with 1N sodium hydroxide, the mixture was sterilized by filtration), 210 μl of 250 mM Probenecid and […] of fetal bovine serum (FBS) were mixed (HANKS/HBSS-Probenecid-FBS).
Furthermore, 2 vials of Fluo3-AM (50 μug/vial) were dissolved in 21 μL of dimethylsulfoxide and 21 μL of 20% Pluronic acid. The resulting solution was added to and mixed with 10 ml of HANKS/HBSS-Probenecid-FBS described above. After the culture medium was removed, the mixture was dispensed onto the cell plate in 100 μL each/well, followed by incubation at 37° C. for an hour in a 5% CO2 incubator (pigment loading). The peptide was dissolved in dimethylsulfoxide in 1×10^−3 M. The peptide solution was diluted with HANKS/HBSS containing 2.5 mM Probenecid, 0.2% BSA and 0.1% CHAPS.

Sequence of hOT7T175 (Q969F8 whole entry L364H): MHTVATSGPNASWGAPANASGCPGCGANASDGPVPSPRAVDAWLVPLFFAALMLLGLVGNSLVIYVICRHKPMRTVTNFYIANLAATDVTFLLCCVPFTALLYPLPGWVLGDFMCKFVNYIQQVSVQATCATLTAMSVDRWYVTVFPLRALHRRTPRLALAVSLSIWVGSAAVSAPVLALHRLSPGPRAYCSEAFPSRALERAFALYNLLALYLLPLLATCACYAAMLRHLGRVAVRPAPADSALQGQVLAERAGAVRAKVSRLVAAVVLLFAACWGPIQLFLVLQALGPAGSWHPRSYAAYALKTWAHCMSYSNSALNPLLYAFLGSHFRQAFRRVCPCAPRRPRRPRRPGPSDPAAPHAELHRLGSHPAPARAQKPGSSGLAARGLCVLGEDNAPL

Take “2-Aminoethyl-Gly-D-Tyr-Asn-Trp-Asn-Ser-Phe-Gly-Leu-Arg(Me)-Phe-NH2 [Compound No. 375]”: the “Specific Activity (intracellular Ca ion level-increasing activity)” value is recorded as 2.

Turning to “3-Pyridylpropionyl-Asn-Ser-Phe-AzaGly-Leu-Arg(Me)-Trp-NH2 [Compound No. 386]”, the “Specific Activity (intracellular Ca ion level-increasing activity)” value is 7.

As for `CC(C)C[C@H](NC(=O)CNC(=O)[C@H](Cc1ccccc1)NC(=O)[C@H](CO)NC(=O)[C@H](CC(N)=O)NC(=O)[C@H](Cc1c[nH]c2ccccc12)NC(=O)[C@H](CC(N)=O)NC(=O)[C@@H](N)Cc1ccc(O)cc1)C(=O)N[C@@H](CCCNC(=N)N)C(=O)N[C@@H](Cc1ccncc1)C(N)=O` [Compound No. 17] (H-YNWNSFGLR[4Pal]-NH2), the “Specific Activity (intracellular Ca ion level-increasing activity)” value was 5.

`CC(C)C[C@H](NC(=O)CNC(=O)[C@H](Cc1ccccc1)NC(=O)[C@H](CO)NC(=O)[C@H](CC(N)=O)NC(=O)[C@H](Cc1c[nH]c2ccccc12)NC(=O)[C@H](CC(N)=O)NC(=O)[C@@H](N)Cc1ccc(O)cc1)C(=O)N[C@@H](CCCNC(=N)N)C(=O)N[C@@H](Cc1ccccc1F)C(N)=O` [Compound No. 19]: the “Specific Activity (intracellular Ca ion level-increasing activity)” value is reported as 2.

For the compound `CC(C)C[C@H](NC(=O)CNC(=O)[C@H](Cc1ccccc1)NC(=O)[C@H](CC(C)C)NC(=O)[C@H](CC(N)=O)NC(=O)[C@H](Cc1c[nH]c2ccccc12)NC(=O)[C@H](CC(N)=O)NC(=O)[C@@H](N)Cc1ccc(O)cc1)C(=O)N[C@@H](CCCNC(=N)N)C(=O)N[C@@H](Cc1ccccc1)C(N)=O` [Compound No. 24] (H-YNWNLFGLRF-NH2), the “Specific Activity (intracellular Ca ion level-increasing activity)” value worked out at 1.

For `CC(=O)N[C@@H](Cc1ccc(O)cc1)C(=O)N[C@@H](CC(N)=O)C(=O)N[C@@H](Cc1c[nH]c2ccccc12)C(=O)N[C@@H](CC(N)=O)C(=O)N[C@@H](CO)C(=O)N[C@@H](Cc1ccccc1)C(=O)NCC(=O)N[C@@H](CC(C)C)C(=O)N[C@@H](CCCNC(=N)N)C(=O)N[C@@H](Cc1ccccc1)C(N)=O` [Compound No. 30], the “Specific Activity (intracellular Ca ion level-increasing activity)” value amounted to 10.

In the case of `CC(C)C[C@H](NC(=O)CNC(=O)[C@H](Cc1ccccc1)NC(=O)[C@H](CO)NC(=O)[C@H](CC(N)=O)NC(=O)[C@H](Cc1c[nH]c2ccccc12)NC(=O)[C@H](CC(N)=O)NC(=O)[C@H](Cc1ccc(O)cc1)NC(=O)OCC1c2ccccc2-c2ccccc21)C(=O)N[C@@H](CCCNC(=N)N)C(=O)N[C@@H](Cc1ccccc1)C(N)=O` [Compound No. 31], the “Specific Activity (intracellular Ca ion level-increasing activity)” value is 2.

For `CC(C)C[C@H](NC(=O)CNC(=O)[C@H](Cc1ccccc1)NC(=O)[C@H](CO)NC(=O)[C@H](CC(N)=O)NC(=O)[C@@H](Cc1c[nH]c2ccccc12)NC(=O)[C@H](CC(N)=O)NC(=O)[C@@H](N)Cc1ccc(O)cc1)C(=O)N[C@@H](CCCNC(=N)N)C(=O)N[C@@H](Cc1ccccc1)C(N)=O` [Compound No. 40], the “Specific Activity (intracellular Ca ion level-increasing activity)” value came out at 30.

On to `CC(C)C[C@H](NC(=O)CNC(=O)[C@H](Cc1ccccc1)NC(=O)[C@H](CO)NC(=O)[C@H](CC(N)=O)NC(=O)[C@H](Cc1c[nH]c2ccccc12)NC(=O)[C@@H](CC(N)=O)NC(=O)[C@@H](N)Cc1ccc(O)cc1)C(=O)N[C@@H](CCCNC(=N)N)C(=O)N[C@@H](Cc1ccccc1)C(N)=O` [Compound No. 41], for which the “Specific Activity (intracellular Ca ion level-increasing activity)” value is reported as 10.

Regarding `CC(C)C[C@H](NC(=O)CNC(=O)[C@H](Cc1ccccc1)NC(=O)[C@H](CO)NC(=O)[C@H](CC(N)=O)NC(=O)[C@H](Cc1c[nH]c2ccccc12)NC(=O)OCC1c2ccccc2-c2ccccc21)C(=O)N[C@@H](CCCNC(=N)N)C(=O)N[C@@H](Cc1ccccc1)C(N)=O` [Compound No. 54] (Fmoc-WNSFGLRF-NH2), the “Specific Activity (intracellular Ca ion level-increasing activity)” value was 5.

With `CC(C)C[C@H](NC(=O)CNC(=O)[C@H](Cc1ccccc1)NC(=O)[C@H](CO)NC(=O)[C@H](CC(N)=O)NC(=O)[C@H](Cc1c[nH]c2ccccc12)NC(=O)[C@H](CC(N)=O)NC(=O)[C@@H](N)Cc1ccc(O)cc1)C(=O)N[C@@H](CCCNC(=N)N)C(=O)N[C@@H](Cc1ccc2ccccc2c1)C(N)=O` [Compound No. 110] (H-YNWNSFGLR[2Nal]-NH2), the “Specific Activity (intracellular Ca ion level-increasing activity)” value came to 20.

With `CC(C)C[C@H](NC(=O)CNC(=O)[C@H](Cc1ccccc1)NC(=O)[C@H](CO)NC(=O)[C@H](CC(N)=O)NC(=O)[C@H](Cc1c[nH]c2ccccc12)NC(=O)[C@H](CC(N)=O)NC(=O)[C@@H](N)Cc1ccc(O)cc1)C(=O)N[C@@H](CCCNC(=N)N)C(=O)N[C@@H](Cc1ccccc1)C(N)=S` [Compound No. 128] (H-YNWNSFGLR-X3), the “Specific Activity (intracellular Ca ion level-increasing activity)” value is recorded as 10.

Regarding `CC(C)C[C@H](NC(=O)CNC(=O)[C@H](Cc1ccccc1)NC(=O)[C@H](CO)NC(=O)[C@H](CC(N)=O)NC(=O)[C@H](Cc1c[nH]c2ccccc12)NC(=O)[C@H](CC(N)=O)NC(=O)[C@@H](N)Cc1ccc(O)cc1)C(=O)N[C@@H](CCCNC(=N)N)C(=O)N[C@@H](Cc1ccc([N+](=O)[O-])cc1)C(N)=O` [Compound No. 132], the “Specific Activity (intracellular Ca ion level-increasing activity)” value came to 10.

Take `CC(C)C[C@H](NC(=O)CNC(=O)[C@H](Cc1ccc2ccccc2c1)NC(=O)[C@H](CO)NC(=O)[C@H](CC(N)=O)NC(=O)[C@H](Cc1c[nH]c2ccccc12)NC(=O)[C@H](CC(N)=O)NC(=O)[C@@H](N)Cc1ccc(O)cc1)C(=O)N[C@@H](CCCNC(=N)N)C(=O)N[C@@H](Cc1ccccc1)C(N)=O` [Compound No. 152, Tyr-Asn-Trp-Asn-Ser-Nal(2)-Gly-Leu-Arg-Phe-NH2] (H-YNWNS[2Nal]GLRF-NH2): the “Specific Activity (intracellular Ca ion level-increasing activity)” value stood at 5.

Consider `CC(C)C[C@H](NC(=O)CNC(=O)[C@H](Cc1ccc(F)cc1)NC(=O)[C@H](CO)NC(=O)[C@H](CC(N)=O)NC(=O)[C@H](Cc1c[nH]c2ccccc12)NC(=O)[C@H](CC(N)=O)NC(=O)[C@@H](N)Cc1ccc(O)cc1)C(=O)N[C@@H](CCCNC(=N)N)C(=O)N[C@@H](Cc1ccccc1)C(N)=O` [Compound No. 154, Tyr-Asn-Trp-Asn-Ser-Phe(4F)-Gly-Leu-Arg-Phe-NH2], for which the “Specific Activity (intracellular Ca ion level-increasing activity)” value was determined as 5.

With `CC(C)C[C@H](NC(=O)CNC[C@H](Cc1ccccc1)NC(=O)[C@H](CO)NC(=O)[C@H](CC(N)=O)NC(=O)[C@H](Cc1c[nH]c2ccccc12)NC(=O)[C@H](CC(N)=O)NC(=O)[C@@H](N)Cc1ccc(O)cc1)C(=O)N[C@@H](CCCNC(=N)N)C(=O)N[C@@H](Cc1ccccc1)C(N)=O` [Compound No. 163, Tyr-Asn-Trp-Asn-Ser-PheΨ(CH2NH)Gly-Leu-Arg-Phe-NH2], the “Specific Activity (intracellular Ca ion level-increasing activity)” value was determined as 1.

On to `CC(C)C[C@H](NC(=O)CNC(=S)[C@H](Cc1ccccc1)NC(=O)[C@H](CO)NC(=O)[C@H](CC(N)=O)NC(=O)[C@H](Cc1c[nH]c2ccccc12)NC(=O)[C@H](CC(N)=O)NC(=O)[C@@H](N)Cc1ccc(O)cc1)C(=O)N[C@@H](CCCNC(=N)N)C(=O)N[C@@H](Cc1ccccc1)C(N)=O` [Compound No. 166, Tyr-Asn-Trp-Asn-Ser-Phe Ψ(CSNH)Gly-Leu-Arg-Phe-NH2] (H-YNWNS[X11]LRF-NH2), for which the “Specific Activity (intracellular Ca ion level-increasing activity)” value worked out at 5.

For the compound `CNC(=N)NCCC[C@H](NC(=O)[C@H](CC(C)C)NC(=O)CNC(=O)[C@H](Cc1ccccc1)NC(=O)[C@H](CO)NC(=O)[C@H](CC(N)=O)NC(=O)[C@H](C)NC(=O)[C@H](CC(N)=O)NC(=O)[C@H](N)Cc1ccc(O)cc1)C(=O)N[C@@H](Cc1ccccc1)C(N)=O` [Compound No. 169] (H-[dY]NANSFGL[Arg(Me)]F-NH2), the “Specific Activity (intracellular Ca ion level-increasing activity)” value turned out to be 2.
